Key:
BCRP = biological target: T1, BCRP (Homo sapiens, UniProt Q9UNQ0); conditions: cited from earlier work
T1 sequence (Q9UNQ0 1-655): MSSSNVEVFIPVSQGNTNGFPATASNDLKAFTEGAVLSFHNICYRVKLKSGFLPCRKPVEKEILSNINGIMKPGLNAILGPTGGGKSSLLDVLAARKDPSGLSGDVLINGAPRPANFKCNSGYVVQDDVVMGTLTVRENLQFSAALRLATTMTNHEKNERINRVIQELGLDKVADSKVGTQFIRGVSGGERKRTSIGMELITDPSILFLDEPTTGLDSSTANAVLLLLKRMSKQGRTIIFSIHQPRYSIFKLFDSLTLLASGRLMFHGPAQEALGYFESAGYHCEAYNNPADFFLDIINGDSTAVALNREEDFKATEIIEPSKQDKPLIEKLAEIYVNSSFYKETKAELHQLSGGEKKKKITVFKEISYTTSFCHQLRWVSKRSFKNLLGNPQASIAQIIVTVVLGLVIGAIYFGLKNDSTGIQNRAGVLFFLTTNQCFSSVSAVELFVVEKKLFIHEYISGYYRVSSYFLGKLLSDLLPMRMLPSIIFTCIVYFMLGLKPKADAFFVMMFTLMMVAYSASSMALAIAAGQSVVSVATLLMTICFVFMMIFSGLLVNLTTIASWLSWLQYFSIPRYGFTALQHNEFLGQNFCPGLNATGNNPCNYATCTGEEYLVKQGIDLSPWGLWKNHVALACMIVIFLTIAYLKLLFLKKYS

wild-type TF-1 = assay: 2-HG reducing assay in cell; format: cell-based
[1] = SD rats; cited from earlier work
MDR1 = MDR1 (Homo sapiens, UniProt P08183); conditions: cited from earlier work
MDR1, sequence (P08183 whole entry): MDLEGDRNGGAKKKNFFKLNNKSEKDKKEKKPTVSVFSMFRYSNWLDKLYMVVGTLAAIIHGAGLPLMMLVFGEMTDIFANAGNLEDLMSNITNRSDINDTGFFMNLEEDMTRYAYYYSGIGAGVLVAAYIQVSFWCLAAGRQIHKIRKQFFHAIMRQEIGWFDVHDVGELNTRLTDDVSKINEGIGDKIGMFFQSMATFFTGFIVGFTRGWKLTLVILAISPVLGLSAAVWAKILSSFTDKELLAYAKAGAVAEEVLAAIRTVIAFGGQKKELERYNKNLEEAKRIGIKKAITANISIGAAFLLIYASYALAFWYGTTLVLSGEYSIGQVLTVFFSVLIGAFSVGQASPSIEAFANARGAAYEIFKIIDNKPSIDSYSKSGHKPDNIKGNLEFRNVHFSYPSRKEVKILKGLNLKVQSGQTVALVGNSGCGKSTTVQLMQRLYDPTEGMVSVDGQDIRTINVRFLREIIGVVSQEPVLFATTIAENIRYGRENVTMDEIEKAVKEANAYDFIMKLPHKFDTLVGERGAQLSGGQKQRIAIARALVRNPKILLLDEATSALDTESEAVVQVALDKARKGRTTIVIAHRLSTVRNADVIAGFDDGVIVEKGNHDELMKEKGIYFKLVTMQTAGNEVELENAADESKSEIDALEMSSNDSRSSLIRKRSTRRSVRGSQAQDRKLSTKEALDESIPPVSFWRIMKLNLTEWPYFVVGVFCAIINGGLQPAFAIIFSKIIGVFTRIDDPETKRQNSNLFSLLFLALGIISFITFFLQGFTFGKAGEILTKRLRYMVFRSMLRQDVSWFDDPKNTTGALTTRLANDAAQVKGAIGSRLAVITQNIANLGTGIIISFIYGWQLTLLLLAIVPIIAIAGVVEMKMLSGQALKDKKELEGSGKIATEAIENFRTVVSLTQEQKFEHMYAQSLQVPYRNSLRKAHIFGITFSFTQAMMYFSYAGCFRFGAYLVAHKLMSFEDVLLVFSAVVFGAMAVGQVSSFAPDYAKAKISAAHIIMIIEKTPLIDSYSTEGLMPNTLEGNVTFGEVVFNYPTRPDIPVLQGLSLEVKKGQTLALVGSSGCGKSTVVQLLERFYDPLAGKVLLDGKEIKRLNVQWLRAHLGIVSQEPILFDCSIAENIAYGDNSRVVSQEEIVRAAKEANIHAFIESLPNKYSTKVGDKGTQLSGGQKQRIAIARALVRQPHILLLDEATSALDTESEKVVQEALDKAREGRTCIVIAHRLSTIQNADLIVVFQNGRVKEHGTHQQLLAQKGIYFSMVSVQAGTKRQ

Which “inhibition of BCRP” value (BCRP) does the source give for `CC(C)(O)CNc1nc(Nc2ccnc(C(F)(F)F)c2)nc(-c2cccc(C(F)(F)F)n2)n1` [AG-221, Enasidenib] here?
The value was “strong inhibitor”.

What about the “overall concentration of 2-HG” value (wild-type TF-1) of the same molecule?
Its value is “did not change significantly”.

And the “prototype drug in the excrement, share of the total drugs” value [1]?
The value was “about 50%”.

What about the “prototype products and metabolites excreted in feces” value [1] of the same molecule?
Its value is greater than 90%.

What about the “inhibition of MDR1” value (MDR1) of the same molecule?
The value was “strong inhibitor”.

Source: PMC8245910 (Acta Pharmaceutica Sinica. B, 2021)
